# Experimental data as given in US20230158057A1, “COMPOSITIONS AND METHODS FOR THE TREATMENT OF PAIN” (Duke University, priority 2020, published 2023).
# Columns and labels:
# IFN-β = experiment: YFP (IFN-β) expression in DRG neurons of Ifnb1YFP/YFP reporter mice; type: in vivo, mouse
# Experimental: Genetic mouse models: All mouse procedures were approved by the Duke University Institutional Animal Care and Use Committee (IACUC) and complied with relevant ethical guidelines. Mice were housed in an animal facility approved by the Association for Assessment and Accreditation of Laboratory Animal Care (AAALAC) under a 12 h light/dark cycle with food and water available ad libitum. All commercially-available genetic mouse models were obtained from Jackson Labs and maintained on a C57BL/6J background, including: Ifnb1YFP reporter mice (strain #010818) 1, STING “goldenticket” knockout mice 2 (STINGgt/gt; strain #017537), STING floxed/conditional knockout mice 3 (STINGfx/fx; strain #031670), Ifnar1 global knockout mice (Ifnar1−/−; strain #028288), Ifnar1 floxed/conditional knockout mice 4 (Ifnar1fx/fx; strain #028256), cGAS knockout mice 5 (cGAS−/−; strain #026554), and RIG-I knockout mice (RIG-I−/−; strain #46070-JAX). Nav1.8-Cre mice 6, also maintained on a C57BL/6J background, were a gift from Rohini Kuner (University of Heidelberg). NOD.CB17-Prkdcscid mice were also obtained from Jackson Labs (strain #001303) and maintained in a NOD/ShiLtSz genetic background. Unless otherwise noted, all experiments were conducted in adult (8-12-week-old) mice. Animals were randomly assigned to each experimental group. Both males and females were included in each group in a sex-matched manner. […]
# DRG nociceptors = experiment: Whole-cell patch clamp recordings in whole-mount DRGs ex vivo; type: cell-based, mouse; details: PTX-treated Ifnar1-WT or Ifnar1-KO mice, ex vivo incubation 30 μM
# Experimental: Whole-cell patch clamp recordings in whole-mount DRGs ex vivo: To test the effects of anti-IFNβ neutralizing antibodies, naïve male and female mice were utilized. […] To perform whole-cell patch clamp recordings in whole-mount DRGs, L1-L5 DRGs were carefully isolated and placed in oxygenated ACSF. Using a stereoscope, peripheral and central DRG projections and connective tissue were dissected away. DRGs were lightly digested for 20 minutes using an enzymatic mixture consisting of 0.32 ml collagenase A (1 mg/mL) and Trypsin (0.25%). […] Following incubation, DRGs were transferred to a recording chamber, where neurons could be visualized using a 40× water-immersion objective on an Olympus BX51WI microscope. The recording chamber was continuously perfused (2-3 ml/min) with ACSF. The pipette solution contained 140 mM KC1, 2 mM MgCl2, 10 mM HEPES, 2 mM Mg-ATP at pH 7.4. The resistance of the glass pipettes was 8-10 MΩ. Data were acquired and analyzed using the pClamp10 (Axon Instruments) software.
# [1] = system: osteoclasts and osteoblasts in tumor-bearing distal femora; experiment: TRAP and ALP staining on mouse femurs; type: in vivo
# Experimental: Bone histology, TRAP, and ALP staining on mouse femurs. Mice were deeply anesthetized and perfused intracardially with 4% paraformaldehyde (PFA) in 0.1M phosphate buffered saline. The femora were removed and then post-fixed for 48 h in the same fixative at 4° C. After demineralization in EDTA (10%) for 10 days, femur samples were dehydrated in an ascending gradient of ethanol (30-100%) followed by paraffin embedding. Serial sections for trabecular bone were obtained from the distal femur at a thickness of 5 μm followed by tartrate-resistant acid phosphatase (TRAP) staining or alkaline phosphatase (ALP) staining using TRAP kits (Fast Red TR/Naphthol AS-MX, Sigma, St. Louis, Mo.) and NBT/BCIP (Thermo Scientific), respectively. Bone static histomorphometric analyses for […] and osteoblast number (osteoblast number per trabecular bone surface, Ob.N/BS) were conducted using Image J (NIH) based on images taken by a Leica Q500MC microscope. Osteoclasts, osteoblasts and trabecular bone at the metaphysis of the femur (1500 μm proximal to the distal growth plate) were quantified, since bone destruction in this model mainly occurs in this area. Three sections per animal were randomly chosen and used for quantification.
SMILES,YFP (IFN-β) expression in DRG neurons (IFN-β),action potential firing of DRG nociceptors (DRG nociceptors),osteoblasts ([1]; d11),"osteoclast numbers ([1]; d11, 2×20 mg/kg i.p.)"
"Nc1ncnc2c1ncn2[C@@H]1O[C@@H]2COP(=O)([S-])O[C@@H]3[C@H](O)[C@@H](COP([O-])(=S)O[C@H]2[C@H]1O)O[C@H]3n1cnc2c(N)ncnc21.[Na+].[Na+] (stereo partly drawn) [ADU-S100, (2′-5′)-[P(R)]-5′-O-[(R)-hydroxymercaptophosphinyl]-P-thioadenylyl-adenosine cyclic dinucleotide]",increased after ADU-S100 treatment,"dramatically reduced action potential firing in WT mice, and this effect was abolished in Ifnar1-deficient neurons",–,–
"Cc1ccc2c(=O)c3cccc(CC(=O)O)c3oc2c1C [DMXAA, 2-(5,6-dimethyl-9-oxo-9H-xanthen-4-yl)acetic acid]",–,–,no changes were observed in bone-forming osteoblasts,far significantly fewer osteoclasts
